Data from ChEMBL document CHEMBL5113529, “Design, Synthesis, and Biological Evaluation of Dual-Target COX-2/CYP51 Inhibitors for the Treatment of Fungal Infectious Diseases” (J Med Chem, 2022).
In brackets after ≈: the same amount, converted by molar mass. Activity calls are given as the source filed them. The calls are words filed in the database; no cut-off is given here.

Tests used:
Cryptococcus neoformans [1] = assay: Antifungal activity against Cryptococcus neoformans ZKCC 2209 assessed as fungal growth inhibition measured after 72 hrs by double dilution method; assay type: functional
Candida albicans [2] = assay: Antifungal activity against Candida albicans ATCC SC5314 assessed as fungal growth inhibition measured after 72 hrs by double dilution method; assay type: functional
Pichia kudriavzevii [3] = assay: Antifungal activity against Candida krusei ATCC 6258 assessed as fungal growth inhibition measured after 72 hrs by double dilution method; assay type: functional
Candida tropicalis [4] = assay: Antifungal activity against Candida tropicalis ATCC 1369 assessed as fungal growth inhibition measured after 72 hrs by double dilution method; assay type: functional
Aspergillus fumigatus [5] = assay: Antifungal activity against Aspergillus fumigatus KM8001 assessed as fungal growth inhibition measured after 72 hrs by double dilution method; assay type: functional
Aspergillus fumigatus [6] = assay: Antifungal activity against Aspergillus fumigatus KM8001 assessed as fungal growth inhibition measured after 72 hrs in presence of fluconazole by double dilution method; details: KM8001, 72 h
Candida albicans [7] = assay: Antifungal activity against Candida albicans ATCC SC5314 assessed as fungal growth inhibition measured after 72 hrs in presence of fluconazole by double dilution method; details: ATCC SC5314, 72 h
Candida albicans [8] = assay: Antifungal activity against fluconazole- resistant Candida albicans 17# assessed as fungal growth inhibition measured after 72 hrs in presence of fluconazole by double dilution method
Candida albicans [9] = assay: Antifungal activity against fluconazole- resistant Candida albicans CaR assessed as fungal growth inhibition measured after 72 hrs in presence of fluconazole by double dilution method
[10] = molecular target: T1, Prostaglandin G/H synthase 2 (Homo sapiens, UniProt P35354); assay: Inhibition of COX-2 (unknown origin) using arachidonic acid as substrate preincubated for 10 mins followed by substrate addition and measured after 2 mins by immunoassay
T1 sequence (P35354 whole entry): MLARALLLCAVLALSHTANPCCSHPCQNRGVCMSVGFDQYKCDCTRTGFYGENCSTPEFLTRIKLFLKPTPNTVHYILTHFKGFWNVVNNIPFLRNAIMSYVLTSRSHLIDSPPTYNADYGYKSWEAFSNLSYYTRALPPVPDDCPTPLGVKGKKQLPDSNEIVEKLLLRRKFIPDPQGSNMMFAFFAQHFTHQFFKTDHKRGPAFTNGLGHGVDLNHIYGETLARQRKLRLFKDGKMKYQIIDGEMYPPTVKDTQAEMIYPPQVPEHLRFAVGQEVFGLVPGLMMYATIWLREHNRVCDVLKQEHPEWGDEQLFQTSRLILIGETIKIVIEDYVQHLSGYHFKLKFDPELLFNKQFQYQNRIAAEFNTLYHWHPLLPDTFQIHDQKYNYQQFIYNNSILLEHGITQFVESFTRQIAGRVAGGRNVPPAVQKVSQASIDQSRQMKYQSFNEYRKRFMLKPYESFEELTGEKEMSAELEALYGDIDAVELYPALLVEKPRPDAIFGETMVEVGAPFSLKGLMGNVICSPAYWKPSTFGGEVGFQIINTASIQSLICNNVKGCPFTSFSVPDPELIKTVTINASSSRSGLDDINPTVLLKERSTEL

Candida tropicalis [11] = assay: microbe, parasite or virus in culture; details: ATCC 1369, 72 h
Description: Antifungal activity against Candida tropicalis ATCC 1369 assessed as fungal growth inhibition measured after 72 hrs in presence of fluconazole by double dilution method

Pichia kudriavzevii [12] = assay: microbe, parasite or virus in culture; details: ATCC 6258, 72 h
Description: Antifungal activity against Candida krusei ATCC 6258 assessed as fungal growth inhibition measured after 72 hrs in presence of fluconazole by double dilution method

Cryptococcus neoformans [13] = assay: microbe, parasite or virus in culture; details: ZKCC 2209, 72 h
Description: Antifungal activity against Cryptococcus neoformans ZKCC 2209 assessed as fungal growth inhibition measured after 72 hrs in presence of fluconazole by double dilution method

Candida albicans [14] = assay: microbe, parasite or virus in culture; details: Candida albicans, 632, 72 h
Description: Antifungal activity against fluconazole- resistant Candida albicans 632 assessed as fungal growth inhibition measured after 72 hrs in presence of fluconazole by double dilution method

Candida albicans [15] = assay: microbe, parasite or virus in culture; details: Candida albicans, 901, 72 h
Description: Antifungal activity against fluconazole- resistant Candida albicans 901 assessed as fungal growth inhibition measured after 72 hrs in presence of fluconazole by double dilution method

Candida albicans [16] = assay: microbe, parasite or virus in culture; details: Candida albicans, 904, 72 h
Description: Antifungal activity against fluconazole- resistant Candida albicans 904 assessed as fungal growth inhibition measured after 72 hrs in presence of fluconazole by double dilution method

Candida albicans [17] = assay: Antifungal activity against fluconazole- resistant Candida albicans 17# assessed as fungal growth inhibition measured after 72 hrs by double dilution method; assay type: functional
Candida albicans [18] = assay: Antifungal activity against fluconazole -resistant Candida albicans CaR assessed as fungal growth inhibition measured after 72 hrs by double dilution method; assay type: functional
Candida albicans [19] = assay: Antifungal activity against fluconazole -resistant Candida albicans 632 assessed as fungal growth inhibition measured after 72 hrs by double dilution method; assay type: functional
Candida albicans [20] = assay: Antifungal activity against fluconazole -resistant Candida albicans 901 assessed as fungal growth inhibition measured after 72 hrs by double dilution method; assay type: functional
Candida albicans [21] = assay: Antifungal activity against fluconazole -resistant Candida albicans 904 assessed as fungal growth inhibition measured after 72 hrs by double dilution method; assay type: functional
[22] = molecular target: Prostaglandin G/H synthase 1 (Homo sapiens, UniProt P23219); assay: Inhibition of COX-1 (unknown origin) using arachidonic acid as substrate preincubated for 10 mins followed by substrate addition and measured after 2 mins by immunoassay
Prostaglandin G/H synthase 1, sequence (P23219 whole entry): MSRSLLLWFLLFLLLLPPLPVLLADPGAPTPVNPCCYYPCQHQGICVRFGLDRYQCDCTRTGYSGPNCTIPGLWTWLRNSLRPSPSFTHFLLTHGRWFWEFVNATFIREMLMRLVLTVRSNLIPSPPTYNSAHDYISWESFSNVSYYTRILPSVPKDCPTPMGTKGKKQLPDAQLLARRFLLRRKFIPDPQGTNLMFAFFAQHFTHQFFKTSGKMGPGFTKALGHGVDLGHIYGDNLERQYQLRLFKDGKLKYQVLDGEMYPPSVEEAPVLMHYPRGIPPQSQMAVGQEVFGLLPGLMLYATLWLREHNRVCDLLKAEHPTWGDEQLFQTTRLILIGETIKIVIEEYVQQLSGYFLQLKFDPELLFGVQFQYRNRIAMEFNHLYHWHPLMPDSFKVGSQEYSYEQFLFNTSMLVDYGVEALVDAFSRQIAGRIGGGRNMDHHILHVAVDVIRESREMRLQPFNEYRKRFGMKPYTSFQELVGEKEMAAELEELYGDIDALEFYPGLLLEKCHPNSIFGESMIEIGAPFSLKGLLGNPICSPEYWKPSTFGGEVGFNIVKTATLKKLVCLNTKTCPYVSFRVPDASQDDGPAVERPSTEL

[23] = molecular target: Lanosterol 14-alpha demethylase (Candida albicans (strain SC5314 / ATCC MYA-2876) (Yeast), UniProt P10613); assay: Inhibition of CYP51 in Candida albicans SC5314 using Eburicol as substrate preincubated for 20 mins followed by substrate addition and measured after 4 mins by HPLC analysis; assay type: single protein
Lanosterol 14-alpha demethylase, sequence (P10613 whole entry): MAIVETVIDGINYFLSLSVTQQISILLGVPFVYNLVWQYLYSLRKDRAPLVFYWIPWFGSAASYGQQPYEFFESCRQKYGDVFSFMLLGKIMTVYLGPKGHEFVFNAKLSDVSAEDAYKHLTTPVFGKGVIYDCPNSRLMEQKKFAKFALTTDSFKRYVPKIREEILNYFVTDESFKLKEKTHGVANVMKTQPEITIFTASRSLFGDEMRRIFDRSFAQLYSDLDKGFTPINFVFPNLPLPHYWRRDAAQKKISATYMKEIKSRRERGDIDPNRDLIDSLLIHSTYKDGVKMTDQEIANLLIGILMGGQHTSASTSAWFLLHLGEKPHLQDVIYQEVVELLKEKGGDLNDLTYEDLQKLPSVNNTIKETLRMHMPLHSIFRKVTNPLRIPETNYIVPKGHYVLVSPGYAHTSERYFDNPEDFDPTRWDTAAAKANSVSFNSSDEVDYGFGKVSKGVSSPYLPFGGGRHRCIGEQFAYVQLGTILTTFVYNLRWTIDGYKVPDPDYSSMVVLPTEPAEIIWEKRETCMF

Candida albicans [24] = assay: Antifungal activity against Candida albicans ATCC SC5314 assessed as decrease in fungal cell density measured immediately by fluorescence microscopy (reference value: 126%); assay type: functional; design: scale not given: the % may be the effect or the level left
Candida albicans [25] = assay: Antifungal activity against Candida albicans ATCC SC5314 assessed as decrease in fungal cell density measured at 48 hrs by fluorescence microscopy (reference value: 258%); assay type: functional; design: scale not given: the % may be the effect or the level left
Candida albicans [26] = assay: Antifungal activity against Candida albicans ATCC SC5314 assessed as induction of ROS production by measuring fluorescence intensity incubated for 12 hrs by KGT010-1 staining based fluorescence microscopy; assay type: functional, organism-based

Row | SMILES | MIC50 (Cryptococcus neoformans [1]) [µg/mL] | MIC50 (Candida albicans [2]) [µg/mL] | MIC50 (Pichia kudriavzevii [3]) [µg/mL] | MIC50 (Candida tropicalis [4]) [µg/mL] | MIC50 (Aspergillus fumigatus [5]) [µg/mL] | also measured
1 | C[C@H](C(=O)NC(Cn1ccnc1)C(=O)c1ccccc1)c1cccc(C(=O)c2ccccc2)c1 (some centres not stated) | 1 (≈ 2.21 µM) | 1 (≈ 2.21 µM) | 0.5 (≈ 1.11 µM) | 0.5 (≈ 1.11 µM) | 4 (≈ 8.86 µM) | –
2 | COc1ccc2cc([C@H](C)C(=O)O)ccc2c1 [NAPROXEN] | – | – | – | – | – | MIC50 (Aspergillus fumigatus [6]): 4 µg/mL; MIC50 (Candida albicans [7]): 0.25 µg/mL; MIC50 (Candida albicans [8]): 4 µg/mL; MIC50 (Candida albicans [9]): 2 µg/mL; IC50 [10]: 2390 nM; MIC50 (Candida tropicalis [11]): 0.5 µg/mL (≈ 2.17 µM); MIC50 (Pichia kudriavzevii [12]): 1 µg/mL (≈ 4.34 µM); MIC50 (Cryptococcus neoformans [13]): 0.25 µg/mL (≈ 1.09 µM); MIC50 (Candida albicans [14]): 4 µg/mL (≈ 17.4 µM); MIC50 (Candida albicans [15]): 4 µg/mL (≈ 17.4 µM); MIC50 (Candida albicans [16]): 2 µg/mL (≈ 8.69 µM)
3 | CC(C)OC(=O)[C@@H](Cn1cncn1)NC(=O)[C@@H](C)c1cccc(C(=O)c2ccccc2)c1 | 0.25 (≈ 0.575 µM) | 0.25 (≈ 0.575 µM) | 0.5 (≈ 1.15 µM) | 0.5 (≈ 1.15 µM) | 4 (≈ 9.21 µM) | MIC50 (Candida albicans [17]): 4 µg/mL (≈ 9.21 µM); MIC50 (Candida albicans [18]): 4 µg/mL (≈ 9.21 µM); MIC50 (Candida albicans [19]): > 8 µg/mL; MIC50 (Candida albicans [20]): 4 µg/mL (≈ 9.21 µM); MIC50 (Candida albicans [21]): > 8 µg/mL; IC50 [22]: > 50000 nM; IC50 [10]: 3410 nM; IC50 [23]: 200 nM; Activity (Candida albicans [24]): 141%; Activity (Candida albicans [25]): 84%; Activity (Candida albicans [26]): Active
4 | CC(=O)N1CCN(c2ccc(OCC3COC(Cn4ccnc4)(c4ccc(Cl)cc4Cl)O3)cc2)CC1 (configuration not stated) [KETOCONAZOLE] | 1 (≈ 1.88 µM) | 0.5 (≈ 0.941 µM) | 0.5 (≈ 0.941 µM) | 0.5 (≈ 0.941 µM) | > 8 | MIC50 (Candida albicans [17]): 4 µg/mL (≈ 7.53 µM); MIC50 (Candida albicans [18]): 4 µg/mL (≈ 7.53 µM); MIC50 (Candida albicans [19]): > 8 µg/mL; MIC50 (Candida albicans [20]): 4 µg/mL (≈ 7.53 µM); MIC50 (Candida albicans [21]): > 8 µg/mL
5 | C[C@H](C(=O)N[C@H](Cn1ccnc1)C(=O)NC1CCCCC1)c1ccc(-c2ccccc2)c(F)c1 | 4 (≈ 8.65 µM) | 2 (≈ 4.32 µM) | 2 (≈ 4.32 µM) | 1 (≈ 2.16 µM) | > 8 | –
6 | COC(=O)[C@@H](Cn1ccnc1)NC(=O)[C@@H](C)c1cccc(C(=O)c2ccccc2)c1 | 1 (≈ 2.47 µM) | 1 (≈ 2.47 µM) | 2 (≈ 4.93 µM) | 0.5 (≈ 1.23 µM) | 4 (≈ 9.87 µM) | –

The remaining compounds from weak to strong by MIC50 (Cryptococcus neoformans [1]), led by results:

Row | MIC50 (Cryptococcus neoformans [1]) [µg/mL] | MIC50 (Candida albicans [2]) [µg/mL] | MIC50 (Pichia kudriavzevii [3]) [µg/mL] | MIC50 (Candida tropicalis [4]) [µg/mL] | MIC50 (Aspergillus fumigatus [5]) [µg/mL] | SMILES | also measured
7 | 0.5 (≈ 1.18 µM) | 0.5 (≈ 1.18 µM) | 1 (≈ 2.37 µM) | 2 (≈ 4.73 µM) | > 8 | CC(C)NC(=O)[C@@H](Cn1ccnc1)NC(=O)[C@@H](C)c1ccc(-c2ccccc2)c(F)c1 | –
8 | 0.5 (≈ 1.13 µM) | 0.5 (≈ 1.13 µM) | 1 (≈ 2.26 µM) | 0.25 (≈ 0.565 µM) | 2 (≈ 4.52 µM) | C[C@H](C(=O)NC(Cn1cncn1)C(=O)c1ccccc1)c1ccc(-c2ccccc2)c(F)c1 (some centres not stated) | –
9 | 0.5 (≈ 1.22 µM) | 0.25 (≈ 0.609 µM) | 1 (≈ 2.44 µM) | 0.5 (≈ 1.22 µM) | 4 (≈ 9.74 µM) | COc1ccc2cc([C@H](C)C(=O)N[C@H](Cn3cncn3)C(=O)OC(C)C)ccc2c1 | –
10 | 0.5 (≈ 1.22 µM) | 0.25 (≈ 0.612 µM) | 0.25 (≈ 0.612 µM) | 1 (≈ 2.45 µM) | 4 (≈ 9.79 µM) | COc1ccc2cc([C@H](C)C(=O)N[C@H](Cn3ccnc3)C(=O)NC(C)C)ccc2c1 | –
11 | 0.5 (≈ 1.1 µM) | 5 (≈ 11 µM) | 1 (≈ 2.21 µM) | 0.5 (≈ 1.1 µM) | 4 (≈ 8.84 µM) | C[C@H](C(=O)NC(Cn1cncn1)C(=O)c1ccccc1)c1cccc(C(=O)c2ccccc2)c1 (some centres not stated) | –
12 | 0.25 (≈ 0.59 µM) | 0.5 (≈ 1.18 µM) | 3 (≈ 7.08 µM) | 1 (≈ 2.36 µM) | > 8 | CC(C)OC(=O)[C@@H](Cn1ccnc1)NC(=O)[C@@H](C)c1ccc(-c2ccccc2)c(F)c1 | –
